Data reported in paper PMC10777848 (Antimicrobial Agents and Chemotherapy, 2023).
Where “and” joins values, the source holds several entries; their conditions need not be identical. Identical values can stand only once. Like-named read-outs stand apart in the source and are kept apart here. One block for each compound: values may come before it.

Tests used:
A. baumannii [1] = assay type: in vivo
Method: (§1) Magnitudes associated with 1-log10 and 2-log10 CFU reduction from baseline at 24 hours as well as the exposure required for an 80% reduction in bacterial burden (EC80) were determined from the fitted function.

A. baumannii [2] = assay: Murine neutropenic lung infection model, PK/PD exposure-response; assay type: in vivo, CD-1 mice
Method: as §1

A. baumannii isolates = assay: Broth MIC testing (CLSI methodology); assay type: cell-based; conditions: Acinetobacter baumannii, modal MIC, combination = sulbactam with fixed 4 µg/mL durlobactam
Source text: All strains with an “ARC” designation are part of the Entasis collection of clinical isolates. All isolates have been previously characterized by whole genome sequencing.

[3] = Population PK in infected neutropenic mice (two-compartment model)
Source text: As the plasma PK of neutropenic lung-infected animals matched that of thigh-infected animals, the thigh-infected PK was used for the development of the population PK model and subsequent exposure estimates for doses used in the PK/PD exposure-response analyses. Pharmacokinetic models were fit to time vs. drug concentration profiles generated in infected mice using Phoenix6.2 WinNonLin and NLME. […] Predicted exposures were utilized in the PK/PD analyses as all dosing solutions tested were within the variability of the bioanalytical method (20%).

A. baumannii [4] = assay: Murine neutropenic thigh and lung models taken together; assay type: in vivo, CD-1 mice
Method: as §1

[5] = parameters: method as in data on file Entasis Therapeutics; conditions: mean of mouse plasma protein unbound fractions ex vivo, 0.4 µM to 50 µM; ref data on file Entasis Therapeutics; cited from earlier work
[6] = test system: 4,038 recent, global, clinical isolates of A. baumannii; parameters: method as in PMID 36005804; conditions: 4,038 global clinical isolates, cited from earlier work
[7] = Distribution into mouse ELF (plasma and BAL sampling); conditions: 100:25 mg/kg sulbactam:durlobactam SC, neutropenic mice infected with ARC2058
A. baumannii [8] = assay type: in vivo; conditions: thigh model; oral 200 mg/kg bid; A. baumannii ARC2058; 24 h
A. baumannii [9] = conditions: in vitro pharmacodynamic models; cited from earlier work
[10] = based on total ELF and plasma AUC exposures; cited from earlier work
A. baumannii [11] = test system: A. baumannii; parameters: method as in PMID 34349751; conditions: cited from earlier work
in vivo = conditions: CD-1, mouse
[12] = thigh model, A. baumannii ARC2058, SC q6h, 24 h
[13] = lung model, A. baumannii ARC2058, SC q6h, 24 h
[14] = co-modeled thigh (n = 6 strains), sulbactam alone and combined with durlobactam
[15] = thigh, ARC2058, sulbactam only, 24 h
[16] = thigh, ARC3484, sulbactam:durlobactam 4:1 dosing, 24 h
[17] = thigh, ARC5081, sulbactam:durlobactam 4:1 dosing, 24 h
[18] = thigh, ARC5091, sulbactam:durlobactam 4:1 dosing, 24 h
[19] = thigh, mean of individual CRAB strains, 4:1 dosing
[20] = sulbactam and durlobactam co-administered 4:1 SC, predicted value (% coefficient of variance)
[21] = thigh (4:1 dose), 5 strains, SUL mean exposure 32.9 to 43.5%T>MIC, 24 h
[22] = mean of thigh 4:1, lung 4:1 and thigh fixed SUL dose

Meropenem %fT>MIC for 1-log10 CFU/g reduction from baseline (A. baumannii [1]; [12]): 27.2%
Meropenem %fT>MIC for 2-log10 CFU/g reduction from baseline (A. baumannii [1]; [12]): 32.4%
Meropenem %fT>MIC for EC80 (A. baumannii [1]; [12]): 36.0%
Meropenem %fT>MIC for 1-log10 CFU/g reduction from baseline (A. baumannii [2]; [13]): 29.4%
Meropenem %fT>MIC for 2-log10 CFU/g reduction from baseline (A. baumannii [2]; [13]): 32.2%
Meropenem %fT>MIC for EC80 (A. baumannii [2]; [13]): 39.7%
SMILES: C[C@@H](O)[C@H]1C(=O)N2C(C(=O)O)=C(S[C@@H]3CN[C@H](C(=O)N(C)C)C3)[C@H](C)[C@H]12 [Meropenem, meropenem]

SMILES: CC1(C)[C@H](C(=O)O)N2C(=O)C[C@H]2S1(=O)=O [Sulbactam, sulbactam]
MIC (A. baumannii isolates; A. baumannii ARC2058): 2 µg/mL
MIC (A. baumannii isolates; A. baumannii ARC3484): 16 µg/mL
MIC (A. baumannii isolates; A. baumannii ARC3486): 32 µg/mL
MIC (A. baumannii isolates; A. baumannii ARC5077): 16 µg/mL
MIC (A. baumannii isolates; A. baumannii ARC5079): 32 µg/mL
MIC (A. baumannii isolates; A. baumannii ARC5081): 16 µg/mL
MIC (A. baumannii isolates; A. baumannii ARC5091): 8 µg/mL
MIC (A. baumannii isolates; A. baumannii ARC5950): 64 µg/mL
MIC (A. baumannii isolates; A. baumannii ARC5954): 32 µg/mL
MIC (A. baumannii isolates; A. baumannii ARC5955): 64 µg/mL
Sulbactam %fT>MIC for 2-log10 CFU reduction from baseline (A. baumannii [1]; [14]): 38.2%
Sulbactam %fT>MIC for EC80 (A. baumannii [1]; [14]): 44.1%
Sulbactam %fT>MIC for 1-log10 CFU reduction from baseline (A. baumannii [1]; [15]): 20.5%
Sulbactam %fT>MIC for 2-log10 CFU reduction from baseline (A. baumannii [1]; [15]): 31.5%
Sulbactam %fT>MIC for EC80 (A. baumannii [1]; [15]): 47.0%
Sulbactam %fT>MIC for 2-log10 CFU reduction from baseline (A. baumannii [1]; [16]): 40.2%
Sulbactam %fT>MIC for EC80 (A. baumannii [1]; [16]): 42.8%
Sulbactam %fT>MIC for EC80 (A. baumannii [1]; thigh, ARC3486, sulbactam:durlobactam 4:1 dosing, 24 h): 55.3%
Sulbactam %fT>MIC for EC80 (A. baumannii [1]; thigh, ARC5079, sulbactam:durlobactam 4:1 dosing, 24 h): 53.2%
Sulbactam %fT>MIC for 1-log10 CFU reduction from baseline (A. baumannii [1]; [17]): 26.3%
Sulbactam %fT>MIC for 2-log10 CFU reduction from baseline (A. baumannii [1]; [17]): 28.8%
Sulbactam %fT>MIC for EC80 (A. baumannii [1]; [17]): 32.0%
Sulbactam %fT>MIC for 1-log10 CFU reduction from baseline (A. baumannii [1]; [18]): 26.7%
Sulbactam %fT>MIC for 2-log10 CFU reduction from baseline (A. baumannii [1]; [18]): 29.3%
Sulbactam %fT>MIC for EC80 (A. baumannii [1]; [18]): 30.4%
Sulbactam %fT>MIC for 2-log10 CFU reduction from baseline, Mean ± SD (A. baumannii [1]; [19]): 38.6 ± 10.0%
Sulbactam %fT>MIC for EC80, Mean ± SD (A. baumannii [1]; [19]): 42.7 ± 11.6%
V1 (central compartment volume of distribution) ([3]; sulbactam alone, SC, predicted value): 1.8847 L/kg
Ka (absorption rate) ([3]; sulbactam alone, SC, predicted value (% coefficient of variance)): 6 (12.5) 1/hr
Ka (absorption rate) [3, 20]: 12 (8.4) 1/hr
V1 (central compartment volume of distribution) [3, 20]: 1.0177 (7.0) L/kg
sulbactam fT>MIC at which 1-log10 CFU reduction over 24 hours can be realized (A. baumannii [4]; both thigh and lung models, in combination with durlobactam, co-modeled across strains): exceeds 50%
sulbactam fT>MIC at which 2-log10 CFU reduction was achieved (A. baumannii [4]; present in vivo study, sulbactam-susceptible isolate ARC2058): exceeded 50%
murine unbound fraction [5]: 100%
MIC90 of sulbactam ([6]; sulbactam alone): 64 µg/mL
MIC90 of sulbactam ([6]; with the addition of durlobactam): 2 µg/mL
AUC, ELF [7]: 10300 ng·h/mL
AUC, Plasma [7]: 32300 ng·h/mL
Concentration, ELF ([7]; 1 h): 5700 ± 1150 ng/mL
Concentration, Plasma ([7]; 1 h): 18550 ± 5870 ng/mL
Concentration, ELF ([7]; 3 h): 540 ± 120 ng/mL
Concentration, Plasma ([7]; 3 h): 1690 ± 560 ng/mL
Concentration, ELF ([7]; 6 h): 290 ± 140 ng/mL
Concentration, Plasma ([7]; 6 h): 100 ± 50 ng/mL
Concentration, ELF ([7]; 12 h): 60 ± 10 ng/mL
Concentration, Plasma ([7]; 12 h): 20 ± 10 ng/mL

SMILES: C[C@H]1COc2c(N3CCN(C)CC3)c(F)cc3c(=O)c(C(=O)O)cn1c23 [levofloxacin]
log10 CFU/g reduction (positive control) (A. baumannii [2]; lung model, oral 200 mg/kg bid, A. baumannii ARC2058, 24 h): 1.8 log10 CFU/g
change in log10 CFU (positive control) (A. baumannii [8]): −2.4 log10 CFU

SMILES: CC1=C[C@@H]2CN(C(=O)N2OS(=O)(=O)O)[C@@H]1C(N)=O [Durlobactam, durlobactam]
Co-modeled durlobactam fAUC/MIC ratio for EC80 (A. baumannii [1]; mouse, in vivo): 38.2
Co-modeled durlobactam fAUC/MIC ratio for 1-log10 CFU reduction from baseline (A. baumannii [1]; [21]): 8.0
Co-modeled durlobactam fAUC/MIC ratio for 2-log10 CFU reduction from baseline (A. baumannii [1]; [21]): 16.0
Co-modeled durlobactam fAUC/MIC ratio for EC80 (A. baumannii [1]; [21]): 15.1
Co-modeled durlobactam fAUC/MIC ratio for 1-log10 CFU reduction from baseline (A. baumannii [2]; mouse, in vivo): 10.6
Co-modeled durlobactam fAUC/MIC ratio for 2-log10 CFU reduction from baseline (A. baumannii [2]; mouse, in vivo): 22.4
Co-modeled durlobactam fAUC/MIC ratio for EC80 (A. baumannii [2]; mouse, in vivo): 78.6
Cl1 (clearance of central compartment) [3, 20]: 3.0747 (7.3) L/kg/h
Ka (absorption rate) [3, 20]: 13.5 (32.6) 1/hr
V1 (central compartment volume of distribution) [3, 20]: 1.2508 (8.4) L/kg
durlobactam fAUC/MIC0-24 at which an additional log10 CFU reduction can be realized (A. baumannii [4]; both thigh and lung models, in combination with sulbactam): ~ 30
durlobactam fAUC/MIC0-24 at which 1-log10 CFU reduction over 24 hours can be realized (A. baumannii [4]; both thigh and lung models, in combination with sulbactam, co-modeled across strains): 10 and ~ 10
Durlobactam fAUC/MIC ratio for 1-log10 CFU reduction from baseline, Mean ± SD (A. baumannii [4]; [22]): 8.7 ± 1.7
Durlobactam fAUC/MIC ratio for 2-log10 CFU reduction from baseline, Mean ± SD (A. baumannii [4]; [22]): 23.4 ± 7.9
Durlobactam fAUC/MIC ratio for EC80, Mean ± SD (A. baumannii [4]; [22]): 44.0 ± 32.1
murine unbound fraction [5]: 100%
durlobactam AUC/MIC associated with net 1-log10 CFU reduction over 24 hours (A. baumannii [9]): > 10 and 10
ELF penetration observed clinically [10]: 37%
intrinsic antibacterial activity against A. baumannii on its own (A. baumannii [11]): no significant intrinsic antibacterial activity
Kp (in vivo; epithelial lining fluid (ELF) / plasma, subcutaneous): 0.63
AUC (in vivo; in vivo, sc, 25 mg/kg): 7000 ng·h/mL
Kp (in vivo; in vivo, sc, 25 mg/kg): 0.63
concentration at 1 h (in vivo; in vivo, sc, 25 mg/kg): 4070 ± 1790 ng/mL
concentration at 3 h (in vivo; in vivo, sc, 25 mg/kg): 330 ± 130 ng/mL
concentration at 12 h (in vivo; in vivo, sc, 25 mg/kg): 10 ± 1 ng/mL
AUC, ELF [7]: 4400 ng·h/mL
Concentration, ELF ([7]; 1 h): 2480 ± 910 ng/mL
Concentration, ELF ([7]; 3 h): 260 ± 150 ng/mL
Concentration, ELF ([7]; 6 h): 2 ± 1 ng/mL
Concentration, Plasma ([7]; 6 h): 30 ± 10 ng/mL
Concentration, ELF ([7]; 12 h): BLQ
